Assay results taken from patent US11566030B2, “Substituted 2,6-dihydropyrrolo[3,4-c]pyrazoles as pyruvate kinase activators” (priority 2021, dated 2023).
Like-named read-outs stand apart in the source and are kept apart here.

Target: T1, Human pyruvate kinase R (PKR) (Homo sapiens, UniProt P30613)
T1 construct: Human pyruvate kinase R (PKR), residues 14-574; 6xHis-8xArg-SUMO (N, cleaved yes); host or cells: E. coli
Experiment: Biochemical assay for activation of pyruvate kinase R (Kinase-Glo luminescence, ATP generation)
Settings: for Emax: read-out: PKR % activation, maximal activation level achieved with each compound relative to the activation level achieved by AG-348 @ 10 μM
Description: Human pyruvate kinase R (PKR), residues 14-574, and human pyruvate kinase M2, residues 1-531, were cloned into expression plasmids and obtained from ATUM Bio (Newark, Calif.). Proteins were translated as fusions with 6×-His,8×-Arg, and SUMO at the N-terminus. A third construct of human PKR was truncated, residues 50-574, and similarly cloned for use in crystallography experiments. All proteins were cloned, expressed in E. coli, and purified using similar protocols. Cells were grown at 30° C. in Luria-Bertani broth supplemented with 0.4% glucose to OD600=0.8 and induced with 0.4 mM IPTG at 16° C. for 18 hours. Cells were harvested by centrifugation, resuspended in 50 mM potassium phosphate pH 8.0, 500 mM NaCl, 25 mM imidazole pH 8.0, and 3 mM β-mercaptoethanol. Cells were lysed using a LM20 microfluidizer from Microfluidics (Westwood, Mass.). The crude lysate was immediately supplemented with 0.2 mM phenylmethylsulfonyl fluoride (PMSF) and centrifuged at 20,000 g for 20 minutes. The soluble fraction was subsequently incubated with 2 mL Ni-NTA (GE Healthcare) per 1,000 ODs for 1 hour at 4° C. Following incubation with the Ni-NTA resin, lysate was removed by pelleting resin at 2,500 g for 3 minutes and washed 3 times with 9 bed volumes of 50 mM potassium phosphate pH 8.0, 500 mM NaCl, 25 mM imidazole, and 3 mM β-mercaptoethanol. Following the batch wash Ni-NTA resin was loaded onto a gravity column and His-tagged protein was eluted with 6 bed volumes of 10 mM Tris/HCl pH 8.0, 200 mM NaCl, 500 mM imidazole, and 3 mM β-mercaptoethanol. Eluted protein was dialyzed overnight against 10 mM Tris/HCl pH 8.0, 200 mM NaCl, and 1 mM DTT and the 6×-His-8×-Arg-SUMO-tag was cleaved using a 20:1 molar ratio of protein: 3C protease. The protein was purified by anion exchange chromatography on a HiTrapQ or MonoQ 10/100 GL column (GE Healthcare) via a linear NaCl gradient and twice by size exclusion chromatography using a Superdex S200 26/60 column (GE Healthcare) run in 10 mM Tris/HCl pH 8.0, 200 mM NaCl, 10 mM MgCl2, 1 mM DTT. Proteins were concentrated to −12 mg/mL for crystallization and flash frozen for storage.
Biochemical assay for Activation of Pyruvate Kinase R
Activation of pyruvate kinase R (PKR) and pyruvate kinase M2 (PKM2) were measured using a luminescence based measurement of ATP generation and the Kinase-Glo luminescent kinase reagent kit.

[1] = PKR AC50 (nM), 0.1 nM PKR, 0.3 mM ADP, 0.1 mM PEP, 1% DMSO

T1 sequence (P30613 14-574): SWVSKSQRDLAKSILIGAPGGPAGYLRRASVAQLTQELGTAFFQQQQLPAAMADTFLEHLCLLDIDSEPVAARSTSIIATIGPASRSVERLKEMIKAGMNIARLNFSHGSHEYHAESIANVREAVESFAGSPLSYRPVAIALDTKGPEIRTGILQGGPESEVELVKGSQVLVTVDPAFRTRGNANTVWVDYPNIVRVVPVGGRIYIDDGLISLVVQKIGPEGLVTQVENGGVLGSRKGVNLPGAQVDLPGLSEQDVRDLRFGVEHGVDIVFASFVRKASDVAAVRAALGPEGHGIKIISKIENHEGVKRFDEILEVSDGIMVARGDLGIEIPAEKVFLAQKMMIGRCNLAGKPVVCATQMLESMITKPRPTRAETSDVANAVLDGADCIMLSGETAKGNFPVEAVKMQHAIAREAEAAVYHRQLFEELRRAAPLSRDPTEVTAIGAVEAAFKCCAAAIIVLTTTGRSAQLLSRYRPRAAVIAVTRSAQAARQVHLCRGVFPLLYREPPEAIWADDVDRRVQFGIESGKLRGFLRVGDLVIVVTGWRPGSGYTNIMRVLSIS

Row | Structure (SMILES) | AC50 [1] [nM] | Emax [%] | AC50 [nM]
1 | O=C([C@@H](CO)c1cccc(F)c1F)N1Cc2cn(S(=O)(=O)c3cnn(CC(F)(F)F)c3)nc2C1 [Compound 74, (2R)-2-(2,3-difluorophenyl)-3-hydroxy-1-{2-[1-(2,2,2-trifluoroethyl)pyrazol-4-ylsulfonyl]-4H,6H-pyrrolo[3,4-c]pyrazol-5-yl}propan-1-one] | 440 | 72 | –
2 | Cc1c(S(=O)(=O)n2cc3c(n2)CN(C(=O)[C@H](CO)c2ccccc2)C3)cnn1CC(F)F [Compound 11, (2S)-1-(2-{[1-(2,2-difluoroethyl)-5-methyl-1H-pyrazol-4-yl]sulfonyl}-2H,4H,5H,6H-pyrrolo[3,4-c]pyrazol-5-yl)-3-hydroxy-2-phenylpropan-1-one] | – | 92 | 5.7
3 | O=C([C@@H](O)c1ncccc1F)N1Cc2cn(S(=O)(=O)c3ccn(CC(F)F)n3)nc2C1 (single isomer, unassigned) [Compound 29] | 420 | 86 | –
4 | Cc1cn(CC(F)F)nc1S(=O)(=O)n1cc2c(n1)CN(C(=O)[C@@H](CO)c1ccccc1Cl)C2 [Compound 81, (2R)-2-(2-chlorophenyl)-1-{2-[1-(2,2-difluoroethyl)-4-methylpyrazol-3-ylsulfonyl]-4H,6H-pyrrolo[3,4-c]pyrazol-5-yl}-3-hydroxypropan-1-one] | – | 62 | 500
5 | O=C([C@@H](CO)c1ccccc1F)N1Cc2cn(S(=O)(=O)c3cnn(CCF)c3)nc2C1 [Compound 35, (2R)-1-[2-[1-(2-fluoroethyl)pyrazol-4-ylsulfonyl]-4H,6H-pyrrolo[3,4c]pyrazol-5-yl]-2-(2-fluorophenyl)-3-hydroxypropan-1-one] | 130 | 125 | –
6 | Cc1c(S(=O)(=O)n2cc3c(n2)CN(C(=O)[C@H](CO)c2ccccc2F)C3)cnn1CC(F)F [Compound 14, (2S)-1-(2-{[1-(2,2-difluoroethyl)-5-methyl-1H-pyrazol-4-yl]sulfonyl}-2H,4H,5H,6H-pyrrolo[3,4-c]pyrazol-5-yl)-2-(2-fluorophenyl)-3-hydroxypropan-1-one] | – | 129 | 7.1
7 | CCn1ncc(S(=O)(=O)n2cc3c(n2)CN(C(=O)[C@@H](CO)c2ccccc2)C3)c1C(F)(F)F [Compound 112, (2R)-1-{2-[1-ethyl-5-(trifluoromethyl)pyrazol-4-ylsulfonyl]-4H,6H-pyrrolo[3,4-c]pyrazol-5-yl}-3-hydroxy-2-phenylpropan-1-one] | 3100 | 174 | –
8 | Cc1c(S(=O)(=O)n2cc3c(n2)CN(C(=O)[C@H](CO)c2ccccc2Cl)C3)cnn1CC(F)F [Compound 101, (2S)-2-(2-chlorophenyl)-1-{2-[1-(2,2-difluoroethyl)-5-methylpyrazol-4-ylsulfonyl]-4H,6H-pyrrolo[3,4-c]pyrazol-5-yl}-3-hydroxypropan-1-one] | 8.5 | 123 | –
9 | CCn1cc(S(=O)(=O)n2cc3c(n2)CN(C(=O)[C@@H](CO)c2ccccc2)C3)c(C(F)(F)F)n1 [Compound 95, (2R)-1-{2-[1-ethyl-3-(trifluoromethyl)pyrazol-4-ylsulfonyl]-4H,6H-pyrrolo[3,4-c]pyrazol-5-yl}-3-hydroxy-2-phenylpropan-1-one] | 2900 | 15 | –
10 | O=C([C@H](CO)c1ccccc1F)N1Cc2cn(S(=O)(=O)c3cnn(CC(F)F)c3)nc2C1 [Compound 2, (2S)-1-(2-{[1-(2,2-difluoroethyl)-1H-pyrazol-4-yl]sulfonyl}-2H,4H,5H,6H-pyrrolo[3,4-c]pyrazol-5-yl)-2-(2-fluorophenyl)-3-hydroxypropan-1-one] | 4.7 | 110 | –
11 | O=C([C@H](O)c1ccccc1F)N1Cc2cn(S(=O)(=O)c3cnn(CC(F)F)c3)nc2C1 [Compound 36, (2R)-1-[2-[1-(2,2-difluoroethyl)pyrazol-4-ylsulfonyl]-4H,6H-pyrrolo[3,4-c]pyrazol-5-yl]-2-(2-fluorophenyl)-2-hydroxyethanone] | 23 | 85 | –
12 | Cc1cn(CC(F)(F)F)nc1S(=O)(=O)n1cc2c(n1)CN(C(=O)[C@@H](CO)c1ccccc1Cl)C2 [Compound 71, (2R)-2-(2-chlorophenyl)-3-hydroxy-1-{2-[4-methyl-1-(2,2,2-trifluoroethyl)pyrazol-3-ylsulfonyl]-4H,6H-pyrrolo[3,4-c]pyrazol-5-yl}propan-1-one] | 3900 | 30 | –
13 | Cc1nn(CC(F)F)c(C)c1S(=O)(=O)n1cc2c(n1)CN(C(=O)[C@H](CO)c1ccccc1)C2 [Compound 87, (2S)-1-[2-[1-(2,2-difluoroethyl)-3,5-dimethylpyrazol-4-ylsulfonyl]-4H,6H-pyrrolo[3,4-c]pyrazol-5-yl]-3-hydroxy-2-phenylpropan-1-one] | – | 59 | –
14 | COCCn1ccc(S(=O)(=O)n2cc3c(n2)CN(C(=O)[C@@H](CO)c2ccccc2F)C3)n1 [Compound 45, (2R)-2-(2-fluorophenyl)-3-hydroxy-1-[2-[1-(2-methoxyethyl)pyrazol-3-ylsulfonyl]-4H,6H-pyrrolo[3,4-c]pyrazol-5-yl]propan-1-one] | 1300 | 53 | –
15 | O=C([C@H](CO)c1ccccc1F)N1Cc2cn(S(=O)(=O)c3cnn(CCF)c3)nc2C1 [Compound 5, (2S)-1-(2-{[1-(2-fluoroethyl)-1H-pyrazol-4-yl]sulfonyl}-2H,4H,5H,6H-pyrrolo[3,4-c]pyrazol-5-yl)-2-(2-fluorophenyl)-3-hydroxypropan-1-one] | 2.7 | 88 | –
16 | O=C(N1Cc2cn(S(=O)(=O)c3ccn(CC(F)(F)F)n3)nc2C1)C1(c2ncccc2Cl)COC1 [Compound 65, (3-(3-chloropyridin-2-yl)oxetan-3-yl)(2-((1-(2,2,2-trifluoroethyl)-1H-pyrazol-3-yl)sulfonyl)-2,6-dihydropyrrolo[3,4-c]pyrazol-5(4H)-yl)methanone] | 110 | 42 | –
17 | COCCOc1ccccc1[C@H](CO)C(=O)N1Cc2cn(S(=O)(=O)c3cnn(CC(F)F)c3)nc2C1 (single isomer, unassigned) [Compound 93] | – | 180 | 120
18 | O=C([C@H](CO)c1ccccc1)N1Cc2cn(S(=O)(=O)c3cnn(CC(F)F)c3)nc2C1 [Compound 1, (2S)-1-(2-{[1-(2,2-difluoroethyl)-1H-pyrazol-4-yl]sulfonyl}-2H,4H,5H,6H-pyrrolo[3,4-c]pyrazol-5-yl)-3-hydroxy-2-phenylpropan-1-one] | 5.4 | 97 | –
19 | COC(C(=O)N1Cc2cn(S(=O)(=O)c3cnn(CC(F)F)c3)nc2C1)c1ncccc1F (stereo not drawn) [Compound 115, 1-(2-{[1-(2,2-difluoroethyl)-1H-pyrazol-4-yl]sulfonyl}-2H,4H,5H,6H-pyrrolo[3,4-c]pyrazol-5-yl)-2-(3-fluoropyridin-2-yl)-2-methoxyethan-1-one] | – | 96 | 2100
20 | Cc1cn(CC(F)(F)F)nc1S(=O)(=O)n1cc2c(n1)CN(C(=O)C1(c3ncccc3Cl)COC1)C2 [Compound 75, (3-(3-chloropyridin-2-yl)oxetan-3-yl)(2-((4-methyl-1-(2,2,2-trifluoroethyl)-1H-pyrazol-3-yl)sulfonyl)-2,6-dihydropyrrolo[3,4-c]pyrazol-5(4H)-yl)methanone] | 0.51 | 3 | –
21 | Cc1c(S(=O)(=O)n2cc3c(n2)CN(C(=O)[C@@H](CO)c2ccccc2F)C3)cnn1CC(F)F [Compound 100, (R)-1-(2-((1-(2,2-difluoroethyl)-5-methyl-1H-pyrazol-4-yl)sulfonyl)-2,6 dihydropyrrolo[3,4-c]pyrazol-5(4H)-yl)-2-(2-fluorophenyl)-3-hydroxypropan-1-one] | – | 126 | 380
22 | O=C([C@@H](CO)c1ccccc1F)N1Cc2cn(S(=O)(=O)c3cnn(CCC(F)(F)F)c3)nc2C1 [Compound 59, (R)-2-(2-fluorophenyl)-3-hydroxy-1-(2-((1-(3,3,3-trifluoropropyl)-1H-pyrazol-4-yl)sulfonyl)-2,6-dihydropyrrolo[3,4-c]pyrazol-5(4H)-yl)propan-1-one] | – | 55 | 1600
23 | COc1ccccc1[C@@H](CO)C(=O)N1Cc2cn(S(=O)(=O)c3cnn(CC(F)F)c3C)nc2C1 [Compound 103, (2S)-1-{2-[1-(2,2-difluoroethyl)-5-methylpyrazol-4-ylsulfonyl]-4H,6H-pyrrolo[3,4-c]pyrazol-5-yl}-3-hydroxy-2-(2-methoxyphenyl)propan-1-one] | 26 | 101 | –
